Entries after “also recorded” stand apart in the source; their conditions may differ.
Columns and labels:
MDA-MB-231 cells [1] = assay: CellTiter-Glo relative growth (luminescent ATP); format: cell-based; details: for EC50 for growth inhibition, compared between compounds: ATP Celltiter Glo proliferation assay, n=3
Protocol: HEK 293T, MDA-MB-231, MDA-MB-468, Hs578T and BT-549 cells (American Type Culture Collection) were cultured at 37° C. with 5% CO2 in Dulbecco's modified Eagle's medium containing (DMEM) (Gibco) supplemented with 5% FBS (HyClone), 100 units/ml penicillin, […] streptomycin (Gibco), non-essential amino acids (Gibco) and 2 mM 1-glutamine (Gibco). Doxorubicin (Selleckchem), cisplatin (Sigma) or olaparib (Selleckchem) were dissolved in DMSO or DMF (cisplatin). […] Pure NO2-OA was diluted in DMSO and added to cells after solvation in assay media. Relative cell numbers were compared by measuring the luminescent signal generated by ATP using the CellTiter-Glo (Promega) assay. Cells were plated in a 96-well plate at 5,000 (MDA-MB-231) or 6,600 (BT549 or Hs578T) cells per well.
Data represent the mean±SEM from 3 independent experiments unless otherwise noted. A p value<0.05 was considered statistically significant. Non-linear curves were generated in GraphPad Prism 7.0 (GraphPad Software, La Jolla, CA, USA) for statistical analysis. EC50 values and standard error were calculated from three independent experiments utilizing a non-linear dose response variable slope model. Significance was tested by one-way ANOVA for multiple groups with Tukey posttest or by t-test when groups were less than three. RAD51 foci number was analyzed with ImageJ. Nuclear boundaries were individually identified in more than 50 cells per treatment group in three independent experiments.
The growth of BT-549 cells was not affected. […] MDA-MB-231 cells were plated in a 96 well plate and treated with talazoparib (0.01-75 μM) plus OA-NO2 or NDA-NO2 (0.2-12 μM) daily for 3 days. Growth inhibition (relative cell numbers) of MDA-MB-231 cells was determined by luminescent detection of ATP (CellTiter-Glo) (FIG. 1K).

[2] = test system: NF-κB transcriptional activity; assay: NF-κB luciferase reporter; format: cell-based; details: MDA-MB-231 and MDA-MB-468 cells, 5 μM 2 hr then TNFα 20 ng/mL 4 hr
Protocol: Luciferase-chemiluminescence-based analysis of NF-κB transcriptional activity was performed. MDA-MB-231 and MDA-MB-468 cells (˜70% confluence) in 12-well plates were transiently transfected with a NF-κB-luciferase reporter plasmid (Stratagene, La Jolla, CA) with Lipofectamine 3000. […] Each transfection was performed in triplicate. Luciferase activity was measured using the Dual-luciferase assay kit (Promega). Relative light units (RLU) were measured using a 96-well plate luminometer, according to the manufacturer's instructions (Victor II, PerkinElmer Life Sciences). Protein concentration was determined using the BCA Assay (Thermo Fisher Scientific). Data represents the ratio of treated samples to controls in the context of mean RLU/protein content, +/−SD. Three individual experiments were done, and statistical significance was determined by Kruskal-Wallis test followed by Dunn's post-test with Bonferroni corrections for multiple comparisons.

MDA-MB 231 TNBC cells = assay: Metabolism in MDA-MB-231 cells by HPLC-MSMS; format: in vitro ADME; details: for omega hydroxylation and carboxylation: 10 uM; for omega hydroxylation and carboxylation / cysteine adduct formation: cell media and cell homogenate
Protocol: FIG. 18. […] Growth inhibition was assessed using the ATP Celltiter Glo proliferation assay and compounds were used at different concentration to determine their EC50. CP-1 had the lowest EC50 followed by 7-NDA and 8-NDA. […] The different metabolic pathways of 7-NDA and 8-NDA have been characterized in MDA-MB-231 TNBC cells. MDA-MB 231 TNBC cells incorporate and metabolize 7-NDA and 8-NDA through beta oxidation (FIG. 19). Inactivation of the active 7-NDA and 8-NDA nitroalkene group is achieved through reduction to a nitroalkane (FIG. 20).
FIG. 19. […] Dinor 7-NDA corresponds to one beta-oxidation cycle while tetranor corresponds to two beta oxidation cycles. […] Formation of both Dinor and Tetranor 8-NDA are shown. Chromatograms correspond to the detection by HPLC-MSMS of the different compounds in negative ion mode using MRMs on a triple quadrupole mass spectrometer.
FIG. 20. […] Chromatograms correspond to the detection by HPLC-MSMS of the different compounds in negative ion mode using MRMs on a triple quadrupole mass spectrometer.
FIG. 21. […] Chromatograms correspond to the detection by HPLC-MSMS of the different using specific MRM transitions on a triple quadrupole mass spectrometer.
FIG. 22. […] Dicarboxylic acids of both 7-NDA and 8-NDA have been detected in cell media and cell homogenate from cell treated with 10 uM 7-NDA or 8-NDA. Chromatograms correspond to the detection by HPLC-MSMS of the different using specific MRM transitions on a triple quadrupole mass spectrometer.

IKKβ = assay: TNFα-induced IKKβ phosphorylation, IκBα phosphorylation and degradation; format: cell-based
Protocol: All studies used two TNBC cell lines, MDA-MB-231 and MDA-MB-468. […] For IκBα degradation, cells were treated as described above and stimulated with 20 ng/mL TNFα for 10 min.
(§1) Western blotting was performed. 20-60 μg of total lysates per lane were loaded on 7%, 10%, or 12% SDS-PAGE and transferred onto nitrocellulose or polyvinylidene difluoride membranes (Bio-Rad). The membranes were probed with primary antibodies against caspase-3, multi-drug resistance protein-1 (MRP1), poly [ADP ribose] polymerase-1 (PARP-1), ubiquitin, RelA; cyclin D1, p21, caspase-9, MRP4, IKKβ, pIKKβ, IκBα, or pIκBα (Cell Signaling); caspase-8 (R&D Systems). Samples were normalized to β-actin (Sigma-Aldrich) or GAPDH (Trevigen).

MDA-MB-468 cells = assay: Matrigel cell invasion assay; format: cell-based; details: NO2-OA/NO2-SA 5 μM, JSH-23 10 μM, TNFα 20 ng/mL, 24 hr
Protocol: Cells were then suspended in migration media and placed in the top well of invasion chambers (EMD Millipore). Chemoattractant (5% FBS) was placed in the lower chamber for 24 hr at 37° C. to attract invasive cells. Cells were then harvested and invasion rates were determined according to manufacturer's protocol. Three individual experiments were done, and statistical comparison among treatments was determined by one-way analysis of variance followed by Tukey post-test.

[3] = test system: homologous recombination (DR-GFP, U2OS cells); assay: DR-GFP HR reporter assay in U2OS cells; format: cell-based; details: FIG. 16B
Protocol: Measurements of NHEJ, HR, Alt-EJ and SSA assays were performed as previously described. HR activity was measured by counting GFP-positive cells by flow cytometry at the MWRI flow cytometry core using a BD LSRII (BD Biosciences). RAD51 overexpressing cells were generated by stable transfection of pLVX RAD51 IRES Neo and selection with geneticin (Invitrogen).
U2OS cells were prepared as above, but 5 h following compound treatment, cells were transferred into the Incucyte Zoom (Essen) live-cell imaging automated fluorescence microscope at 37° C. with 5% CO2. Cell confluence and green object count per mm2 were determined using Incucyte Zoom software. Green object count per field was normalized to cell confluency to correct for NO2—OA-induced effects on cell proliferation.
NO2-OA-dependent effects on HR DNA repair were further investigated by utilizing a DRGFP reporter assay. This analysis quantifies intracellular recombination of an integrated cDNA cassette of two tandem non-fluorescent GFP constructs following introduction of an I-SceI cleavage to the system by measuring the fluorescent GFP protein that is produced following successful recombination. […] A novel strategy was used to measure the kinetics of changes in HR in live cells by using automated fluorescence microscopy to track the emergence of GFP positive cells over time in monolayers, as opposed to making static measurements of detached cells using flow cytometry. […] This was indicated by an absence of changes in the number of GFP positive cells following I-SceI cleavage after 48 h by flow cytometric analysis or over 68 h by live-cell fluorescence microscopy (FIGS. 2C, 2D).

[4] = test system: human high grade serous ovarian cancer cells; assay: Cell growth/viability by luminescent ATP with PARP inhibitors; format: cell-based; details: with Olaparib or Talazoparib
Protocol: Cell growth/viability is determined from luminescent detection of cell ATP concentration.

[5] = test system: MDA-MB-231 and MDA-MB-468 cells; assay: FACS cell cycle analysis; format: cell-based; details: MCF-10A, MDA-MB-231 and MDA-MB-468 cells, 24 hr
Protocol: Adherent and nonadherent cells were collected, centrifuged at 2000×rpm for 10 min, washed with ice-cold phosphate-buffered saline, fixed with cold 70% ethanol at 4° C. for 30 mins, and stained with 50 μg/mL propidium iodide (Sigma-Aldrich). FACS analysis was performed at the University of Pittsburgh Department of Immunology Unified Flow Core Facility. Three individual experiments were done, and statistical comparisons among phases (G0/G1, S, and G2/M) were determined by one-way analysis of variance followed by Tukey post-test.

MDA-MB-231 cells [6] = assay: Cell growth assay (FluoReporter dsDNA); format: cell-based; details: TNBC cell lines MDA-MB-231 and MDA-MB-468, 48 hr
Protocol: Cells were plated at a cell density of 5000 cells per well in 96-well plates. […] Cells were counted using the FluoReporter dsDNA quantitation kit (Molecular Probes) according to the manufacturer's instructions. Fluorescence was measured using a SpectraMax M2 plate reader (Molecular Devices). […] Three individual experiments were done (n=5/each), and statistical comparison between two cell lines across doses was determined by two-way analysis of variance followed by Tukey post-test.

[7] = test system: RelA in MDA-MB-231 and MDA-MB-468 cells; assay: RelA protein level and polyubiquitination; format: cell-based; details: 5 μM, 24 hr
Protocol: Lysates were clarified by centrifugation at 14,000×g for 10 min. Protein lysates (1 mg) were incubated with anti-RelA antibody and Protein G/A conjugated agarose beads (EMD Millipore, Bedford, MA) at 4° C., overnight. Immunoprecipitation fraction were obtained by centrifugation at 14,000×g for 1 min at RT and washed with lysis buffer three times. The immunoprecipitated RelA was resolved by 8% SDSPAGE gel, and transferred to nitrocellulose membrane (Bio-Rad) for immunoblotting probed with an anti-ubiquitin antibody (Santa Cruz Biotechnology). The blot was then stripped and probed with an anti-RelA antibody to assess amounts of RelA protein pull-down.
as §1

With CCCCCCCCC=CCCCCCCCC(=O)O [OA, octadec-9-enoic acid, reference compound] as the compound, how does the “EC50 for growth inhibition, compared between compounds” value (MDA-MB-231 cells [1]) read?
Its value is “did not induce any growth inhibition”.

And the “NF-κB-dependent transcription of luciferase” value [2]?
Its value is “no effect”.

With CCCCCCCCCCC/C=C(\CCCCCC(=O)O)[N+](=O)[O-] [7-NDA, 7-NO2-nonadec-7-enoic acid] as the compound, how does the “EC50 for growth inhibition, compared between compounds” value (MDA-MB-231 cells [1]) read?
Its value is “more sensitive to 7-NDA and 8-NDA when compared to OA-NO2”.

What about the “IC50 compared with NO2-OA” value (MDA-MB-231 cells [1]; FIG. 12) of the same compound?
Its value is “lower IC50 compared NO2-OA”.

And the “Combination index (CI), Chou-Talalay” value (MDA-MB-231 cells [1]; with talazoparib (0.01-75 μM), 0.2-12 μM, daily 3 days, CI<1 is synergistic)?
The value was “better combination indices; also recorded: better CI values compared to OA-NO2”.

And the “formation of active nitroalkene beta-oxidation metabolites (dinor, tetranor)” value (MDA-MB 231 TNBC cells)?
The value was “does not result in the formation of active, nitroalkene containing metabolites”.

And the “omega hydroxylation and carboxylation” value (MDA-MB 231 TNBC cells)?
Its value is “omega hydroxylation and carboxylation”.

And the cysteine adduct formation (MDA-MB 231 TNBC cells)?
The cysteine adduct formation was “form cysteine adducts that are detected in cell media and cell homogenate”.

How did the “TNFα-induced IKKβ phosphorylation” value (IKKβ; NO2-OA 5 μM or BAY11-7082 10 μM 2 hr, TNFα 20 ng/mL 5 min) turn out when Cc1ccc(S(=O)(=O)/C=C/C#N)cc1 [BAY11-7082, 3[(4-methylphenyl)sulfonyl]-(2E)-propenenitrile, reference compound] was run?
The value was “diminished”.

What about the “degradation of IκBα following TNFα stimulation” value (IKKβ; TNFα 20 ng/mL, 10 min) of the same compound?
The value was “inhibited the degradation of IκBβ”.

And the IκBα phosphorylation (IKKβ; with proteasome inhibitor MG-132 10 μM)?
Its IκBα phosphorylation is “decreased IκBβ phosphorylation”.

How did the TNFα-induced invasion (MDA-MB-468 cells) turn out when Cc1ccc(NCCCc2ccccc2)c(N)c1 [JSH-23, 4-Methyl-N1-(3-phenyl-propyl)-benzene-1,2-diamine] was run?
Its TNFα-induced invasion is “inhibition of MDA-MB-468 cell invasion”.

For CCCCCCCCCCC/C(=C\CCCCCC(=O)O)[N+](=O)[O-] [8-NDA, 8-NO2-nonadec-7-enoic acid], which “EC50 for growth inhibition, compared between compounds” value (MDA-MB-231 cells [1]) is on record?
Its value is “more sensitive to 7-NDA and 8-NDA when compared to OA-NO2”.

What about the “formation of active nitroalkene beta-oxidation metabolites (dinor, tetranor)” value (MDA-MB 231 TNBC cells) of the same compound?
Its value is “result in the active (structures having the reactive nitroalkene moiety) beta-oxidation products”.

And the “omega hydroxylation and carboxylation” value (MDA-MB 231 TNBC cells)?
Its value is “omega hydroxylation and carboxylation”.

And the cysteine adduct formation (MDA-MB 231 TNBC cells)?
The cysteine adduct formation was “form cysteine adducts that are detected in cell media and cell homogenate”.

“methyl-ethyl-4-nitro-oct-4-enedioate [CP-1]” was tested. Which “EC50 for growth inhibition, compared between compounds” value (MDA-MB-231 cells [1]) did it give?
Its value is “lower EC50 than OA-NO2; also recorded: lowest EC50”.

And the “inhibition of homologous recombination” value [3]?
Its value is “inhibition of homologous recombination”.

What about the “concentration of PARP inhibitor needed for 50% tumor cell killing” value [4] of the same compound?
Its value is “lowers the concentration of the PARP inhibitors”.

Which results are given for CCCCCCCCC(CCCCCCCCC(=O)O)[N+](=O)[O-] (stereo not drawn) [NO2—SA, 10-nitro-octadecanoic acid, reference compound]?
TNFα-induced invasion (MDA-MB-468 cells): marginal effects; cell cycle populations and regulatory proteins [5]: did not affect cell cycle populations; TNBC cell growth (MDA-MB-231 cells [6]): did not affect TNBC cell growth; RelA protein abundance [7]: no effect; NF-κB-dependent transcription of luciferase [2]: no effect

Source: US12390435B2, “Electrophiles and electrophile pro-drugs as RAD51 inhibitors” (University of Pittsburgh—Of the Commonwealth System of …, priority 2018, dated 2025)
